How the values were obtained:
Assay type in all cases: in vivo
ducksalad [1] = assay: Test Example 1: herbicidal effects in preemergence treatment under submerged conditions; conditions: dose 2.52 g/a
In short: (§1)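 Submerged conditions, 4 cm water over alluvial soil. Weeds sown and 2.5-leaf rice transplanted; compound applied preemergence to water surface, doses in g per are. Greenhouse, 25 to 30° C., three weeks, then 0–5 mortality rating.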

bulrush [2] = assay: as above; conditions: dose 2.52 g/a
In short: as §1

barnyardgrass [3] = assay: as above; conditions: dose 2.52 g/a
In short: as §1

Italian ryegrass [4] = assay: Test Example 4: herbicidal effect in foliage treatment; conditions: dose 3.2 g/a, three weeks after application
In short: (§2)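 14-day greenhouse-grown plants (25–30° C) sprayed on foliage with diluted EC; dose as g/a; effect graded after 3 weeks.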

giant foxtail [5] = assay: as above; conditions: dose 3.2 g/a, three weeks after application
In short: as §2

redroot pigweed [6] = assay: as above; conditions: dose 3.2 g/a, three weeks after application
In short: as §2

large crabgrass [7] = assay: as above; conditions: dose 3.2 g/a, three weeks after application
In short: as §2

common lambsquater [8] = assay: as above; conditions: dose 3.2 g/a, three weeks after application
In short: as §2

posumbu knotweed [9] = assay: as above; conditions: dose 3.2 g/a, three weeks after application
In short: as §2

common ragweed [10] = assay: as above; conditions: dose 3.2 g/a, three weeks after application
In short: as §2

velvetleaf [11] = assay: as above; conditions: dose 3.2 g/a, three weeks after application
In short: as §2

barnyardgrass [12] = assay: as above; conditions: dose 3.2 g/a, three weeks after application
In short: as §2

common chickweed [13] = assay: as above; conditions: dose 3.2 g/a, three weeks after application
In short: as §2

water foxtail [14] = assay: as above; conditions: dose 3.2 g/a, three weeks after application
In short: as §2

transplanted rice = assay: Test Example 1: preemergence treatment under submerged conditions, effect on crop; conditions: dose 2.52 g/a
In short: as §1

Italian ryegrass [15] = assay: Test Example 3: herbicidal effects in soil treatment; conditions: dose 3.2 g/a
In short: (§3)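 Seeds were sown in sterilized diluvial soil and covered with about 1.5 cm of soil. Compounds, formulated as emulsifiable concentrates and diluted with water, were sprayed evenly over the soil surface at set doses in g/a. Herbicidal effect was scored on a rating scale three weeks later.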

giant foxtail [16] = assay: as above; conditions: dose 3.2 g/a
In short: as §3

redroot pigweed [17] = assay: as above; conditions: dose 3.2 g/a
In short: as §3

large crabgrass [18] = assay: as above; conditions: dose 3.2 g/a
In short: as §3

common lambsquater [19] = assay: as above; conditions: dose 3.2 g/a
In short: as §3

posumbu knotweed [20] = assay: as above; conditions: dose 3.2 g/a
In short: as §3

common ragweed [21] = assay: as above; conditions: dose 3.2 g/a
In short: as §3

velvetleaf [22] = assay: as above; conditions: dose 3.2 g/a
In short: as §3

barnyardgrass [23] = assay: as above; conditions: dose 3.2 g/a
In short: as §3

common chickweed [24] = assay: as above; conditions: dose 3.2 g/a
In short: as §3

water foxtail [25] = assay: as above; conditions: dose 3.2 g/a
In short: as §3

ducksalad [26] = assay: Test Example 2: herbicidal effects during the vegetation period under submerged conditions; conditions: treatment during the vegetation period under submerged conditions; dose 2.52 g/a
In short: (§4)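 Barnyardgrass, bulrush and ducksalad were co-sown in alluvial soil flooded to 4 cm and grown in a greenhouse at 25 to 30° C. At the 1- or 2-leaf stage, water-diluted emulsifiable concentrates went onto the water surface at set doses (g/a). Herbicidal effect was scored three weeks later on a graded scale.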

bulrush [27] = assay: as above; conditions: treatment during the vegetation period under submerged conditions; dose 2.52 g/a
In short: as §4

barnyardgrass [28] = assay: as above; conditions: treatment during the vegetation period under submerged conditions; dose 2.52 g/a
In short: as §4

Row | Compound | C: ducksalad, herbicidal effect (evaluation scale 0-5) (ducksalad [1]) | B: bulrush, herbicidal effect (evaluation scale 0-5) (bulrush [2]) | A: barnyardgrass, herbicidal effect (evaluation scale 0-5) (barnyardgrass [3]) | H: Italian ryegrass, herbicidal effect (Italian ryegrass [4]) | E: giant foxtail, herbicidal effect (giant foxtail [5]) | K: redroot pigweed, herbicidal effect (redroot pigweed [6]) | D: large crabgrass, herbicidal effect (large crabgrass [7]) | L: common lambsquater, herbicidal effect (common lambsquater [8]) | M: posumbu knotweed, herbicidal effect (posumbu knotweed [9]) | J: common ragweed, herbicidal effect (common ragweed [10]) | I: velvetleaf, herbicidal effect (velvetleaf [11]) | A: barnyardgrass, herbicidal effect (barnyardgrass [12]) | N: common chickweed, herbicidal effect (common chickweed [13]) | G: water foxtail, herbicidal effect (water foxtail [14]) | a: transplanted rice, effect on crop (evaluation scale 0-5) (transplanted rice) | H: Italian ryegrass, herbicidal effect (evaluation scale 0-5) (Italian ryegrass [15]) | E: giant foxtail, herbicidal effect (evaluation scale 0-5) (giant foxtail [16]) | K: redroot pigweed, herbicidal effect (evaluation scale 0-5) (redroot pigweed [17]) | D: large crabgrass, herbicidal effect (evaluation scale 0-5) (large crabgrass [18]) | L: common lambsquater, herbicidal effect (evaluation scale 0-5) (common lambsquater [19]) | other results
1 | CCOC(=O)N(c1ccccc1CN1COC(C)(c2ccccc2)CC1=O)S(=O)(=O)C(F)(F)F (stereo not shown) [II-58] | 5 (mortality of 90% or above (nearly complete death)) | 5 (mortality of 90% or above (nearly complete death)) | 5 (mortality of 90% or above (nearly complete death)) | 4 (mortality of at least 70% and less than 90%) | 0 (mortality of less than 5% (almost ineffective)) | 0 (mortality of less than 5% (almost ineffective)) | 0 (mortality of less than 5% (almost ineffective)) | 1 (mortality of at least 5% and less than 20%) | 3 (mortality of at least 40% and less than 70%) | 3 (mortality of at least 40% and less than 70%) | 0 (mortality of less than 5% (almost ineffective)) | 3 (mortality of at least 40% and less than 70%) | 4 (mortality of at least 70% and less than 90%) | 3 (mortality of at least 40% and less than 70%) | 0 (mortality of less than 5% (almost ineffective)) | 4 (mortality of at least 70% and less than 90%) | 0 (mortality of less than 5% (almost ineffective)) | 0 (mortality of less than 5% (almost ineffective)) | 0 (mortality of less than 5% (almost ineffective)) | 0 (mortality of less than 5% (almost ineffective)) | M: posumbu knotweed, herbicidal effect (evaluation scale 0-5) (posumbu knotweed [20]): 4 (mortality of at least 70% and less than 90%); J: common ragweed, herbicidal effect (evaluation scale 0-5) (common ragweed [21]): 0 (mortality of less than 5% (almost ineffective)); I: velvetleaf, herbicidal effect (evaluation scale 0-5) (velvetleaf [22]): 0 (mortality of less than 5% (almost ineffective)); A: barnyardgrass, herbicidal effect (evaluation scale 0-5) (barnyardgrass [23]): 0 (mortality of less than 5% (almost ineffective)); N: common chickweed, herbicidal effect (evaluation scale 0-5) (common chickweed [24]): 0 (mortality of less than 5% (almost ineffective)); G: water foxtail, herbicidal effect (evaluation scale 0-5) (water foxtail [25]): 5 (mortality of 90% or above (nearly complete death)); C: ducksalad, herbicidal effect (evaluation scale 0-5) (ducksalad [26]): 5 (mortality of 90% or above (nearly complete death)); B: bulrush, herbicidal effect (evaluation scale 0-5) (bulrush [27]): 5 (mortality of 90% or above (nearly complete death)); A: barnyardgrass, herbicidal effect (evaluation scale 0-5) (barnyardgrass [28]): 4 (mortality of at least 70% and less than 90%)
2 | CCOC(=O)N(c1ccccc1CN1COC(C)(C2CC2)CC1=O)S(=O)(=O)C(F)(F)F (stereo not shown) [II-45] | 5 (mortality of 90% or above (nearly complete death)) | 5 (mortality of 90% or above (nearly complete death)) | 5 (mortality of 90% or above (nearly complete death)) | 4 (mortality of at least 70% and less than 90%) | 2 (mortality of at least 20% and less than 40%) | 0 (mortality of less than 5% (almost ineffective)) | 3 (mortality of at least 40% and less than 70%) | 3 (mortality of at least 40% and less than 70%) | 3 (mortality of at least 40% and less than 70%) | 3 (mortality of at least 40% and less than 70%) | 2 (mortality of at least 20% and less than 40%) | 4 (mortality of at least 70% and less than 90%) | 3 (mortality of at least 40% and less than 70%) | 4 (mortality of at least 70% and less than 90%) | 0 (mortality of less than 5% (almost ineffective)) | 4 (mortality of at least 70% and less than 90%) | 4 (mortality of at least 70% and less than 90%) | 0 (mortality of less than 5% (almost ineffective)) | 4 (mortality of at least 70% and less than 90%) | 0 (mortality of less than 5% (almost ineffective)) | M: posumbu knotweed, herbicidal effect (evaluation scale 0-5) (posumbu knotweed [20]): 4 (mortality of at least 70% and less than 90%); J: common ragweed, herbicidal effect (evaluation scale 0-5) (common ragweed [21]): 4 (mortality of at least 70% and less than 90%); I: velvetleaf, herbicidal effect (evaluation scale 0-5) (velvetleaf [22]): 0 (mortality of less than 5% (almost ineffective)); A: barnyardgrass, herbicidal effect (evaluation scale 0-5) (barnyardgrass [23]): 5 (mortality of 90% or above (nearly complete death)); N: common chickweed, herbicidal effect (evaluation scale 0-5) (common chickweed [24]): 3 (mortality of at least 40% and less than 70%); G: water foxtail, herbicidal effect (evaluation scale 0-5) (water foxtail [25]): 5 (mortality of 90% or above (nearly complete death)); C: ducksalad, herbicidal effect (evaluation scale 0-5) (ducksalad [26]): 5 (mortality of 90% or above (nearly complete death)); B: bulrush, herbicidal effect (evaluation scale 0-5) (bulrush [27]): 5 (mortality of 90% or above (nearly complete death)); A: barnyardgrass, herbicidal effect (evaluation scale 0-5) (barnyardgrass [28]): 5 (mortality of 90% or above (nearly complete death))

Source: patent publication US20120029187A1, “HALOALKYLSULFONANILIDE DERIVATIVE” (Nissan Chemical Industries, Ltd., priority 2009, published 2012)
